Experimental data: patent publication US7851599B2 (Philogen S.p.A., priority 2006, dated 2010)

Assays:
[1] = tested on: human pancreatic cancer cell line DanG; experiment: Orthotopic DanG pancreatic cancer xenograft, tumor volume; format: in vivo, nude mice
[2] = molecular target: ED-B domain of fibronectin (Homo sapiens, UniProt P02751); details: cited from earlier work
Chain of ED-B domain of fibronectin (P02751 1271-1359 limits assumed): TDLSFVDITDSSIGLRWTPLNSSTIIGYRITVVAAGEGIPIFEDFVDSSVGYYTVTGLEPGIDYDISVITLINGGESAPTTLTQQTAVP

Row | Compound | mice with complete remission ([1]; gemcitabine 250 mg/kg BW days 7, 14, L19IL2 4.29 MIU/kg BW days 8-12, 15-19, or both) | pancreatic tumor volume, % compared to control mice ([1]; gemcitabine i.p. 250 mg/kg BW once weekly (day 7 and 14), day 21) [%] | binding affinity for ED-B [2]
1 | Nc1ccn([C@@H]2O[C@H](CO)[C@@H](O)C2(F)F)c(=O)n1 [gemcitabine, 2′-deoxy-2′,2′-difluorocytidine] | no complete remission | 28 | –
2 | scFv L19: human homodimeric single chain Fv antibody fragment L19 specific for the ED-B domain of fibronectin | – | – | picomolar
